Source: BigSolDB 2.1

NC(=O)c1nc(F)cnc1O
solubility (mole fraction)
Details	293.15 K	298.15 K	303.15 K	308.15 K	313.15 K	318.15 K	323.15 K	328.15 K	333.15 K
in DMF	0.0109	0.0116	0.0128	0.0133	0.0156	0.0183	0.0212	0.0234	0.026
in acetone	0.00417	0.00458	0.00492	0.00523	0.00585	0.00638	0.00699	0.00772	0.00859
in acetonitrile	0.00183	0.00188	0.00193	0.00207	0.00226	0.00242	0.00268	0.00285	0.00293
in dichloromethane	0.00231	0.00271	0.00277	0.00284	0.00328	0.00359	0.00398	0.00462	0.00514
in ethanol	0.00206	0.00238	0.00252	0.00279	0.00318	0.00339	0.00366	0.00395	0.00458
in ethyl acetate	0.0036	0.00396	0.00442	0.00449	0.00497	0.00525	0.00572	0.00599	0.00662
in isopropanol	0.00185	0.00196	0.00209	0.00236	0.00268	0.00284	0.00315	0.00318	0.00326
in methanol	0.00147	0.00152	0.00156	0.00163	0.00169	0.00176	0.00182	0.00195	0.00199
in methyl acetate	0.00397	0.00408	0.00464	0.00499	0.00521	0.00564	0.00597	0.00624	0.00778
in n-butanol	0.00263	0.00296	0.00318	0.00346	0.00385	0.00409	0.00463	0.00499	0.00537
in n-butyl acetate	0.00502	0.00513	0.00582	0.00641	0.00681	0.00741	0.00839	0.00894	0.00986
in n-propanol	0.00188	0.00197	0.00225	0.00258	0.00276	0.00299	0.00316	0.00349	0.00395
